Read-outs that look alike come from different tables or passages of the source.
System: TGF-β signaling (SBE-SEAP reporter) in MFB-F11 cells
Type: cell-based, mouse
Conditions: for Relative TGF-β activity, fold change compared with vehicle: cell reporter assay
Experimental: All compounds were tested twice, in duplicate, using the MFB-F11 cell line. 80 compounds were selected for further study based on induction of the reporter gene in any of the replicates. These compounds were tested again in MFB-F11 or C6-H4 cells, either alone or in the presence of 100 pg/ml of TGF-β1, to test for synergistic activities.

Row | Structure (SMILES) | TGF-β agonist activity (data of FIGS. 1A-1J) | Relative TGF-β activity, fold change compared with vehicle (3 μM) | Relative TGF-β activity, fold change compared with vehicle (10 μM) | Relative TGF-β activity, fold change compared with vehicle (30 μM) | Relative TGF-β activity, fold change compared with vehicle (100 μM)
1 | CCOC(=O)CNC(=O)Nc1ccc(N2CCN(c3ccccc3OC)CC2)c(C(=O)NC(C)c2ccccc2)c1 (stereo not shown) [Compound 5E, ethyl 2-(3-(4-(4-(2-methoxyphenyl)piperazin-1-yl)-3-(1-phenylethylcarbamoyl)phenyl)ureido)acetate] | TGF-β-agonists | – | – | – | –
2 | COCCN(CC(=O)N(CCc1c[nH]c2ccccc12)Cc1ccc(F)cc1)C(=O)C(C)Cl (stereo not shown) [Compound 13F03] | – | 1.3 fold | 1.9 fold | 3.8 fold | 9.1 fold
3 | COCCCN(CC(=O)N(CCc1c[nH]c2ccccc12)Cc1ccc(C(F)(F)F)cc1)C(=O)C1CC1c1ccccc1 (stereo not shown) [Compound 21A08] | – | 1.1 fold | 1.5 fold | 1.9 fold | 2.7 fold
4 | Cc1ccc(C(=O)N(CC(=O)N(CCc2c[nH]c3ccccc23)Cc2ccc(C(F)(F)F)cc2)C(C)C)cc1[N+](=O)[O-] [Compound 21F11] | – | 0.8 fold | 1.6 fold | 2.7 fold | 6.5 fold
5 | COCCN(CC(=O)N(CCc1c[nH]c2ccccc12)Cc1ccc(F)cc1)C(=O)c1ccc(Cl)c([N+](=O)[O-])c1 [Compound 22B05] | – | 1.1 fold | 1.2 fold | 1.7 fold | 2.8 fold
6 | COCCCN(CC(=O)N(CCc1c[nH]c2ccccc12)Cc1ccc(F)cc1)C(=O)c1ccccc1Cl [Compound 22D03] | – | 1.4 fold | 3.7 fold | 8.3 fold | 8.8 fold
7 | COCCCN(CC(=O)N(CCc1c[nH]c2ccccc12)Cc1ccc(F)cc1)C(=O)c1ccc(C(F)(F)F)cc1 [Compound 22E02] | – | 1.4 fold | 4.7 fold | 8.6 fold | 9.1 fold
8 | CC(C)N(CC(=O)N(CCc1c[nH]c2ccccc12)Cc1ccc(N(C)C)cc1)C(=O)C(Cl)Cl [Compound 23B08] | – | 1.1 fold | 1.8 fold | 3.1 fold | 4.5 fold
9 | CCOC(=O)CCC(=O)N(CC(=O)N(CCc1c[nH]c2ccccc12)Cc1ccc(N(C)C)cc1)C(C)C [Compound 23D05] | – | 0.8 fold | 1.1 fold | 1.7 fold | 4.7 fold
10 | COCCN(CC(=O)N(CCc1c[nH]c2ccccc12)Cc1ccc(OC)c(OC)c1)C(=O)C(Cl)Cl [Compound 24D04] | – | 1.2 fold | 1.1 fold | 1.5 fold | 2.7 fold
